pIC50: −log10 of the molar value.
Legend:
[1] = tested on: ifnb and cxcl10 gene expression in THP-1 cells; assay: mRNA detection of TBK1 downstream genes (RT-PCR), poly(I:C)-stimulated THP-1 cells; type: cell-based, human; conditions: compound at 1 µM
A172 cells = assay: Antiproliferative activity, SRB staining; type: cell-based; conditions: Homo sapiens, A 172, glioma cell line, 72 h
Method: (§1) A172, U87MG, A375, A2058, and Panc0504 cell lines were obtained from ATCC and cultured in indicated medium according to ATCC’s instructions. Cells were seeded in 96 well-plates at a destiny of around 2000 cells per well one day prior to administrated to increasing doses of indicated compounds. After 72 h of treatment, cells were washed with PBS and were fixed by 10% trichloroacetic acid before stained by sulphorhodamine B (SRB) solution. Unstained SRB were washed away by 1% acetic acid to reduce background signals. A Tris-based solution (10 mM) were used to dissolve stained SRB and the absorbance at 540 nm was measured with SpectraMax Paradigm (Molecular Devices). Inhibition rate was calculated by the relative absorbance value of test compound wells with the average of control wells […].

A2058 cells = assay: Antiproliferative activity, SRB staining; type: cell-based; conditions: Homo sapiens, melanoma cell line, 72 h
Method: as §1

A375 cells = assay: Antiproliferative activity, SRB staining; type: cell-based; conditions: Homo sapiens, A-375, melanoma cell line, 72 h
Method: as §1

Panc0504 cells = assay: Antiproliferative activity, SRB staining; type: cell-based; conditions: Panc 05.04, pancreatic cell line, 72 h
Method: as §1

U87MG cells = assay: Antiproliferative activity, SRB staining; type: cell-based; conditions: Homo sapiens, U-87 MG, glioma cell line, 72 h
Method: as §1

In the case of Cc1nc2c(F)cc(-c3n[nH]c4ncc(-c5cccc(S(N)(=O)=O)c5)cc34)cc2n1C(C)C [Compound 15y], the “inhibition of cxcl10 expression” value [1] was > 93%, the “inhibition of ifnb expression” value [1] was > 93% and the pIC50 (A172 cells) was 5.85. It also gave a pIC50 (A2058 cells) of 6.05, a pIC50 (A375 cells) of 5.51 and a pIC50 (Panc0504 cells) of 5.44. For the same compound, the pIC50 (U87MG cells) was 5.62.

— publication PMC9132415, “Identification of 1H-pyrazolo[3,4-b]pyridine derivatives as novel and potent TBK1 inhibitors: design, synthesis, biological evaluation, and molecular docking study” (Journal of Enzyme Inhibition and Medicinal Chemistry, 2022)
